Type in all cases: cell-based, Pseudomonas aeruginosa
The subject of assay [1] is P. aeruginosa H133880624. Description: Minimum inhibitory concentration, broth microdilution. The following applies: clinical isolate P. aeruginosa H133880624. How it is done: (§1) Briefly, fresh cultures of each strain were diluted in Cation-Adjusted Mueller-Hinton Broth (CAMHB; Mg^2+ at 12.2 mg/L and Ca^2+ at 23.0 mg/L [Oxoid, Hampshire, England]) giving an approximately inoculum of 10^^6 colony-forming units (CFU/ml) as the inocula. Drug concentrations of 0, 0.125, 0.25, 0.5, 1, 2, and 4 mg/L were derived from diluting the stock drug solution (5.12 mg/mL) with CAMHB.

The test system of assay [2] is P. aeruginosa H131300444. The assay is described as above. The settings on record: clinical isolate P. aeruginosa H131300444. How it is done: as §1
In assay [3] the test system is P. aeruginosa H133880624. Description: In vitro static time-kill experiment. The settings on record: colistin 2 mg/L and/or ciprofloxacin 8 mg/L; 0-24 hrs; FIG. 13B. How it is done:
(§2) All samples were dissolved in CAMHB and all experiments were performed with an initial inoculum of ~10^6 CFU/mL in 20 mL of CAMHB in 50 mL pyrogen-free and sterile polypropylene tubes. […] Serial samples (50 μL) were obtained at 0, 1, 3, 6 and 24 hrs for viable cell counting and determination of drug concentrations. All samples were centrifuged at 12000×g for 10 min and cell pellets were resuspended in 0.9% saline and diluted accordingly for viable counting on nutrient agar plates. The bacteria were incubated at 37° C. for 24 hrs and the limit of detection was 20 CFU/mL (equivalent to one colony per plate). The colonies were counted with a ProtoCOL colony counter (Synbiosis, Cambridge, United Kingdom).

In assay [4] the test system is P. aeruginosa H131300444. As to the kind of experiment: In vitro static time-kill experiment. The following applies: colistin 2 mg/L and/or ciprofloxacin 8 mg/L; 0-24 hrs; FIG. 13A. How it is done: as §2

The term MIC denotes the least concentration at which growth counts as inhibited. For Colistin sulfate, the MIC in the assay with P. aeruginosa H133880624 [1] and with P. aeruginosa H131300444 [2] was 128 µg/mL in each case. Moreover, the time-kill profile entry in the assay on P. aeruginosa H133880624 [3] and in the assay on P. aeruginosa H131300444 [4] was “no antibacterial effect” in each case.
